Measured values reported in patent US20260138959A1, “QUINAZOLINE DERIVATIVE COMPOUND AND USE THEREOF” (VORONOI INC., priority 2021, published 2026).

How the values were obtained:
[1] = system: various kinases; assay: Inhibitory activity against various kinases, DiscoverX scanMAX Kinase panel, % control at 1 μM; type: binding
Method: The activities of the compounds according to the present disclosure on various enzymes were evaluated. Specifically, it was commissioned DiscoverX to measure enzyme selectivity for the compounds of Examples 3, 9, and 83 above, and the experiment was conducted using a panel for scanMAX™ Kinase analysis. Herein, a solution prepared by dissolving in DMSO at a concentration of 1 μM was used as the drug treated with the enzyme, and the control percentage (% control) was determined by the method of Equation 1 below, and the results are shown in Table 8 below.
Herein, when the calculated percentage value for each enzyme was less than 35%, it was determined to have inhibitory activity for the enzyme. Accordingly, among the series of enzymes tested, the enzymes showing the inhibitory activities of the compounds of the present disclosure are summarized and shown in Table 8 below along with the control percentages thereof. (©): less than 10%; ◯: 10% or more to less than 35%).

[2] = biological target: T1, human c-KIT(wt) (Homo sapiens, UniProt P10721); assay: Enzyme inhibitory activity, ADP-Glo kinase assay, c-KIT(wt); type: biochemical; conditions: read-out: c-KIT (WT) (IC50 class)
T1 construct: purchased Signalchem K06-11BG
T1 sequence (P10721 26-976): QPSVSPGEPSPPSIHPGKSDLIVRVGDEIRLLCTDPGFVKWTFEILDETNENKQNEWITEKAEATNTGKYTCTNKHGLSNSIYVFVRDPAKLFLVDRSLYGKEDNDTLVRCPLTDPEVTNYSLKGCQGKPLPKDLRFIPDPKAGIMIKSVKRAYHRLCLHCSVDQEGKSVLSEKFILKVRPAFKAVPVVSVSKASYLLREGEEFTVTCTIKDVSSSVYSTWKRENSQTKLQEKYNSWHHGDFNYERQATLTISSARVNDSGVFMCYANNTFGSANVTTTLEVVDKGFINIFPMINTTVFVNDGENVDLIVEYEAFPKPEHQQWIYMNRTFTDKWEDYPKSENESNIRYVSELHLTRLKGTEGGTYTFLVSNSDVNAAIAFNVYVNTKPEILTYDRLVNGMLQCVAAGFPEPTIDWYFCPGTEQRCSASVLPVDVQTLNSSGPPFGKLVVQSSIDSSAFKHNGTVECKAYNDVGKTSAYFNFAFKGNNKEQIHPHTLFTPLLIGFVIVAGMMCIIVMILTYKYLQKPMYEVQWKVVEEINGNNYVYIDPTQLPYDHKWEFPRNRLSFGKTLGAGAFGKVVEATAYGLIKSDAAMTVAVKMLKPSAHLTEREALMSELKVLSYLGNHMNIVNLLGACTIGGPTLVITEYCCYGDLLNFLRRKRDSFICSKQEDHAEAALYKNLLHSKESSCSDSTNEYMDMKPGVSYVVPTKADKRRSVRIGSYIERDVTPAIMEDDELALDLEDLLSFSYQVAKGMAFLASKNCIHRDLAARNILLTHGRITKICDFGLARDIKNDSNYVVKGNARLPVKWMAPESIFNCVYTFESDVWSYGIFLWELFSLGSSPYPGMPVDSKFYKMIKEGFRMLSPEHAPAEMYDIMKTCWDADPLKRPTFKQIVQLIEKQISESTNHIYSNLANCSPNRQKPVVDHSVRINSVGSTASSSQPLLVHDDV
Method: (§1) In order to evaluate the inhibitory activity of the compounds synthesized according to the above examples on PDGFR-α(wt), PDGFR-β(wt), c-KIT(wt), and c-KIT(D816V) kinases, the following method was performed. The compounds of examples were reacted with purified human PDGFR-α(wt) (Signalchem #P12-18G) enzyme, human PDGFR-β(wt) (Signalchem #P13-11G) enzyme, human c-KIT(wt) (Signalchem #K06-11BG) enzyme, human c-KIT(D816V) (Signalchem #C06-12LG) enzyme, and the enzyme inhibitory abilities were evaluated by the following method.
(§2) The reaction buffer was used as a composition of 40 mM Tris-HCl pH7.4, 20 mM MgCl2, 0.5 mg/ml BSA, 50 μM DTT, and the reactions of all the tests were carried out on the reaction buffer. The compound was diluted in 12 steps using a serial dilution method from a 10 mM DMSO stock, and the enzyme activity was measured at a final compound concentration of 10˜0.00005645 μM. During the test, the enzyme activity was confirmed using in vitro ADP-Glo™ kinase assay (Promega) after reacting with the proper concentration of human PDGFR-α(wt) enzyme, human PDGFR-β(wt), human c-KIT(wt) enzyme, and human c-KIT(D816V) enzyme with purified ATP and enzyme substrate at 25° C. for 1˜2 hours. At a ratio of 2:2:1, an enzyme-active reaction solution, an ADP-Glo reaction solution, and an enzyme-active detection solution were reacted to measure the inhibition of the enzyme's activity with luminoscence. Based on the […] of the enzyme activity of the solvent control that was not treated with the compound, the degree of enzyme activity inhibition was calculated according to the treatment concentration of each compound, and the concentration of each compound that inhibits 50% of enzyme activity was determined as IC50 (nM) value and the value was obtained by using GraphPad Prism 8.3.0 (GraphPad software Inc., San Diego) software. (A: IC50≤50 nM; B: 50 nM<IC50≤100 nM; C: 100 nM<IC50≤500 nM; D: IC50>500 nM).

[3] = biological target: T2, human PDGFR-β(wt) (Homo sapiens, UniProt P09619); assay: Enzyme inhibitory activity, ADP-Glo kinase assay, PDGFR-β(wt); type: biochemical; conditions: read-out: PDGFR-β (IC50 class)
T2 construct: purchased Signalchem P13-11G
T2 sequence (P09619 33-1106): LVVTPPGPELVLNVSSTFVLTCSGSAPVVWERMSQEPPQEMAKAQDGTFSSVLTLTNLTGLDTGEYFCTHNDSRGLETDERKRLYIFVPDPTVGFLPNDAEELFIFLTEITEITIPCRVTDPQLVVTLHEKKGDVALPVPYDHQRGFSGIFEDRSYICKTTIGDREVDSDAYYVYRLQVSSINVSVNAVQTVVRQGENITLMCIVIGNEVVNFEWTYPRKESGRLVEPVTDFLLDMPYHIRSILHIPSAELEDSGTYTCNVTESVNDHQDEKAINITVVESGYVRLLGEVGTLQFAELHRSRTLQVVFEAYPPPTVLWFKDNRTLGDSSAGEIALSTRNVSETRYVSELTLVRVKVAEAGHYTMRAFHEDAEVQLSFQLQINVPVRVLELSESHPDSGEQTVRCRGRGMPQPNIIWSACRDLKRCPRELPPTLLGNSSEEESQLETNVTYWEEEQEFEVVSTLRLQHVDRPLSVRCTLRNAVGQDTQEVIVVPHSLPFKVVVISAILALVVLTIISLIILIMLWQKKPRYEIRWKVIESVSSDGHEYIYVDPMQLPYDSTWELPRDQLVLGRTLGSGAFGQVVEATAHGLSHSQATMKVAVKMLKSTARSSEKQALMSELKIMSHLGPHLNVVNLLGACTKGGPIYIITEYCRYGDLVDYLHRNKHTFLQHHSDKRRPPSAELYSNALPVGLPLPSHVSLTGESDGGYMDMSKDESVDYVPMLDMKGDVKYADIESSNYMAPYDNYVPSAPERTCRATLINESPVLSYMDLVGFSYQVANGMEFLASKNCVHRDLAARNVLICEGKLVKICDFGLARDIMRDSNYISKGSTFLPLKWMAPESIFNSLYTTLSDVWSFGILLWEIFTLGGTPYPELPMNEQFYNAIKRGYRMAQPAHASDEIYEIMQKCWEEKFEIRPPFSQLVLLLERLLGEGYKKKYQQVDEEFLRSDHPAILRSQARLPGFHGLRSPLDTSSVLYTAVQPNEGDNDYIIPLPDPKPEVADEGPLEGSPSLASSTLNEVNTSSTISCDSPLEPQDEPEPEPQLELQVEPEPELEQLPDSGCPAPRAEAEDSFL
Outline: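 Purified human kinases incubated with ATP and substrate 1–2 h at 25 °C in 40 mM Tris-HCl pH 7.4, 20 mM MgCl2, BSA, DTT, compound over 12 concentrations (10–0.00005645 μM final). ADP formed quantified by ADP-Glo luminescence; IC50 from inhibition versus DMSO control, reported in bins A–D.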

[4] = system: c-KIT D814Y; assay: Proliferation inhibitory activity on Ba/F3 cell (CellTiter-Glo, 72 hours), c-KIT D814Y; type: cell-based; conditions: Mus musculus, BaF3, c-KIT D814Y cells, read-out: Cell (nM) c-KIT D814Y (GI50 class)
Method: (§3) Ba/F3-TEL-PDGFRα(WT), Ba/F3-TEL-PDGFβ(WT), Ba/F3-c-KIT(D816V) (Kyinno, #KC-0138), c-KIT V560G/D816V, c-KIT D814Y were seeded at 3×10^3/100 μl/well in a clear bottom white 96-well plate. A culture solution containing compounds of 12 concentrations (0.00001-2 mM) serially diluted in 3 folds and the DMSO control group was added at 0.5 μl/well each to a final concentration of 0.00005-10 μM, and then incubated in a CO2 incubator at 37° C. for 72 hours. After 72 hours, the plate treated with the compound was taken out, CellTiter-Glo® Assay (Promega) solution was treated with 100 μl/well, followed by mixing well. After mixing well for about 10 minutes at room temperature, […] was measured using a microplate reader. The data were presented as percentages in proportion to treated cells based on the vehicle, GI50 (nM) values were calculated using GraphPad Prism 8.3.0 (GraphPad software Inc., San Diego).
(§4) The inhibitory activities of Ba/F3 expressing PDGFR-α, PDGFR-β, c-KIT(D816V), c-KIT V560G/D816V, and c-KIT D814Y measured as described above were measured and shown in Table 7 below (A: GI50≤200 nM; B: 200 nM<GI50≤500 nM; C: GI50>500 nM).

[5] = system: Ba/F3-TEL-PDGFβ(WT); assay: Proliferation inhibitory activity on Ba/F3 cell (CellTiter-Glo, 72 hours), PDGFR-β; type: cell-based; conditions: Mus musculus, BaF3, read-out: Ba/F3 (nM) Tel-PDGFRβ (GI50 class)
Outline: (§5)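 Viability was read by CellTiter-Glo after 72 h compound exposure at 37 °C, and GI50 values (nM) were derived from percent of vehicle-treated growth. Ba/F3 cells transformed with TEL-PDGFRα/β or mutant c-KIT were plated at 3×10^3 per well. Final compound range was 0.00005-10 μM in 12 threefold steps.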

[6] = biological target: T3, human PDGFR-α(wt) (Homo sapiens, UniProt P16234); assay: Enzyme inhibitory activity, ADP-Glo kinase assay, PDGFR-α(wt); type: biochemical; conditions: read-out: PDGFR-α (IC50 class)
T3 construct: purchased Signalchem P12-18G
T3 sequence (P16234 24-1089): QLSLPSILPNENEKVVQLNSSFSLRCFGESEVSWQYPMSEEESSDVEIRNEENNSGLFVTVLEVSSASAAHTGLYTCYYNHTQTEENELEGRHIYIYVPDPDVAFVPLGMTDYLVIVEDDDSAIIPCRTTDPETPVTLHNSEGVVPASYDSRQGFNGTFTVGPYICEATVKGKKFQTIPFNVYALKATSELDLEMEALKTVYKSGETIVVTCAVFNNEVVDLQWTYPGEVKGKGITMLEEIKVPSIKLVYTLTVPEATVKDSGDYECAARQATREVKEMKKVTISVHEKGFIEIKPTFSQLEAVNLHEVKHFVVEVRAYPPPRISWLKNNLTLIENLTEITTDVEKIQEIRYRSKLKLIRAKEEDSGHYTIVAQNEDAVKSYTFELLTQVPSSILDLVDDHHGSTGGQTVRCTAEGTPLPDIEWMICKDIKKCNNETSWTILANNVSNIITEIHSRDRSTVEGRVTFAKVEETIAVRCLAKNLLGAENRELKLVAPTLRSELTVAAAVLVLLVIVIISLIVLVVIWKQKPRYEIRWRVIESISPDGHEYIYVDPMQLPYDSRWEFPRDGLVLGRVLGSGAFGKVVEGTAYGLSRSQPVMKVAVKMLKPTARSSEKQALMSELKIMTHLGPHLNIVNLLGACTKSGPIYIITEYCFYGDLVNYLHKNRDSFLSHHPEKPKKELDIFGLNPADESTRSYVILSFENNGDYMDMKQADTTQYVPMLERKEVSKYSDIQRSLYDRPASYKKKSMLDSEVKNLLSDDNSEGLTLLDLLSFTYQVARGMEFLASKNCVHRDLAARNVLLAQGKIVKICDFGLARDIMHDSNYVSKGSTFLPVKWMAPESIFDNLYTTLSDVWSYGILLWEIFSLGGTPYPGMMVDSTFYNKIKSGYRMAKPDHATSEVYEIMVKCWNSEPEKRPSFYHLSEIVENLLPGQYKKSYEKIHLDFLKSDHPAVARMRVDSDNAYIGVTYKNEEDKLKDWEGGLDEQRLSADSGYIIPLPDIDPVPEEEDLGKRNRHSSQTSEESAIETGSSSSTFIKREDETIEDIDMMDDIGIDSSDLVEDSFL
Method: as §1, §2

[7] = system: Ba/F3-TEL-PDGFRα(WT); assay: Proliferation inhibitory activity on Ba/F3 cell (CellTiter-Glo, 72 hours), PDGFR-α; type: cell-based; conditions: Mus musculus, BaF3, read-out: Ba/F3 (nM) Tel-PDGFRα (GI50 class)
Method: as §3, §4

[8] = system: Ba/F3-c-KIT(D816V); assay: Proliferation inhibitory activity on Ba/F3 cell (CellTiter-Glo, 72 hours), c-KIT(D816V); type: cell-based; conditions: Mus musculus, BaF3, read-out: Ba/F3 (nM) c-KIT (D816V) (GI50 class)
Outline: as §5

[9] = system: c-KIT V560G/D816V; assay: Proliferation inhibitory activity on Ba/F3 cell (CellTiter-Glo, 72 hours), c-KIT V560G/D816V; type: cell-based; conditions: Mus musculus, BaF3, c-KIT V560G/D816V cells, read-out: Cell (nM) c-KIT V560G/D816V (GI50 class)
Outline: as §5

[10] = biological target: c-KIT D816V (Homo sapiens, UniProt P10721, D816V); assay: Enzyme inhibitory activity, ADP-Glo kinase assay, c-KIT(D816V); type: biochemical; parameters: purchased Signalchem C06-12LG; conditions: read-out: c-KIT (D816V) (IC50 class)
Sequence of c-KIT D816V (P10721 26-976 D816V): as the sequence (P10721 26-976) above, with D791V counted along it
Method: as §1, §2

SMILES | control percentage (% control), KIT ([1]; KIT) | control percentage (% control), KIT (A829P) ([1]; KIT (A829P)) | control percentage (% control), KIT (D816H) ([1]; KIT (D816H)) | control percentage (% control), KIT (D816V) ([1]; KIT (D816V)) | control percentage (% control), KIT (L576P) ([1]; KIT (L576P)) | control percentage (% control), KIT (V559D) ([1]; KIT (V559D)) | IC50 [2] [nM] | IC50 [3] [nM] | GI50 [4] [nM] | GI50 [5] [nM] | IC50 [6] [nM] | GI50 [7] [nM] | GI50 [8] [nM] | GI50 [9] [nM] | IC50 [10] [nM]
COc1cc2c(-c3ccc(NC(=O)Cc4ccc(C(F)(F)F)cc4)cc3)ncnc2cc1OCCCN1CCN(C)CC1 [Example 9, N-(4-(6-methoxy-7-(3-(4-methylpiperazin-1-yl)propoxy)quinazolin-4-yl)phenyl)-2-(4-(trifluoromethyl)phenyl)acetamide] | ⊚ | ⊚ | ⊚ | ⊚ | ◯ (◯: 10% or more to less than 35%) | ◯ (◯: 10% or more to less than 35%) | ≤ 50 | ≤ 50 | ≤ 200 | ≤ 200 | ≤ 50 | ≤ 200 | ≤ 200 | ≤ 200 | ≤ 50
COCCOc1cc2ncnc(-c3ccc(NC(=O)Cc4ccc(C(F)(F)F)cc4)cc3)c2cc1OCCOC [Example 57, N-(4-(6,7-bis(2-methoxyethoxy)quinazolin-4-yl)phenyl)-2-(4-(trifluoromethyl)phenyl)acetamide] |  |  |  |  |  |  | ≤ 50 | ≤ 50 |  | ≤ 200 | ≤ 50 | ≤ 200 |  | ≤ 200 | ≤ 50
COc1cc2ncnc(-c3ccc(NC(=O)Cc4ccc(C(F)(F)F)cc4)cc3)c2cc1OC1CCNCC1 [Example 140, N-(4-(7-methoxy-6-(piperidin-4-yloxy)quinazolin-4-yl)phenyl)-2-(4-(trifluoromethyl)phenyl)acetamide] |  |  |  |  |  |  |  | ≤ 50 | > 500 | ≤ 200 | ≤ 50 | ≤ 200 | ≤ 200 | > 500 | 
CCN(CC)CCOc1cc2ncnc(-c3ccc(NC(=O)Cc4ccc(C(F)(F)F)cc4)cc3)c2cc1OC [Example 1, N-(4-(7-(2-(diethylamino)ethoxy)-6-methoxyquinazolin-4-yl)phenyl)-2-(4-(trifluoromethyl)phenyl)acetamide] |  |  |  |  |  |  | ≤ 50 | ≤ 50 |  | ≤ 200 | ≤ 50 | ≤ 200 | ≤ 200 | ≤ 200 | ≤ 50
CCN1CCC(COc2cc3ncnc(-c4ccc(NC(=O)Cc5ccc(C(F)(F)F)cc5)cc4)c3cc2OC)CC1 [Example 4, N-(4-(7-((1-ethylpiperidin-4-yl)methoxy)-6-methoxyquinazolin-4-yl)phenyl)-2-(4-(trifluoromethyl)phenyl)acetamide] |  |  |  |  |  |  |  | ≤ 50 | ≤ 200 | ≤ 200 |  |  | ≤ 200 | ≤ 200 | 
CCN(CC)CCCOc1cc2ncnc(-c3ccc(NC(=O)Cc4ccc(C(F)(F)F)cc4)cc3)c2cc1OC [Example 11, N-(4-(7-(3-(diethylamino)propoxy)-6-methoxyquinazolin-4-yl)phenyl)-2-(4-(trifluoromethyl)phenyl)acetamide] |  |  |  |  |  |  | ≤ 50 | ≤ 50 | ≤ 200 | ≤ 200 | ≤ 50 | ≤ 200 | ≤ 200 | ≤ 200 | ≤ 50
CCN1CCCC(COc2cc3ncnc(-c4ccc(NC(=O)Cc5ccc(C(F)(F)F)cc5)cc4)c3cc2OC)C1 (stereo not shown) [Example 18, N-(4-(7-((1-ethylpiperidin-3-yl)methoxy)-6-methoxyquinazolin-4-yl)phenyl)-2-(4-(trifluoromethyl)phenyl)acetamide] |  |  |  |  |  |  |  |  | ≤ 200 | ≤ 200 |  |  | ≤ 200 | ≤ 200 | 
COc1cc2c(-c3ccc(NC(=O)Cc4ccc(C(F)(F)F)cc4)cc3)ncnc2cc1OC1CCN(C)CC1 [Example 2, N-(4-(6-methoxy-7-((1-methylpiperidin-4-yl)oxy)quinazolin-4-yl)phenyl)-2-(4-(trifluoromethyl)phenyl)acetamide] |  |  |  |  |  |  | ≤ 50 | ≤ 50 |  | ≤ 200 | ≤ 50 | ≤ 200 | ≤ 200 | 200 to 500 | ≤ 50
CCN(CC)CCOc1cc2c(-c3ccc(NC(=O)Cc4ccc(F)cc4)cc3)ncnc2cc1OC [Example 122, N-(4-(6-(2-(diethylamino)ethoxy)-7-methoxyquinazolin-4-yl)phenyl)-2-(4-fluorophenyl)acetamide] |  |  |  |  |  |  | ≤ 50 | 50 to 100 |  | ≤ 200 | ≤ 50 | ≤ 200 |  |  | ≤ 50
COc1cc2ncnc(-c3ccc(NC(=O)Cc4ccc(C(F)(F)F)cc4)cc3)c2cc1OCCN1CCN(C)CC1 [Example 131, N-(4-(7-methoxy-6-(2-(4-methylpiperazin-1-yl)ethoxy)quinazolin-4-yl)phenyl)-2-(4-(trifluoromethyl)phenyl)acetamide] |  |  |  |  |  |  |  | ≤ 50 | 200 to 500 |  |  |  | ≤ 200 | 200 to 500 | 
